In the supplement of paper PMC10307832 one finds relative viability data, which are given here for four cell lines.

Common to all, as to assay: relative viability (nuclei count vs DMSO), 5 days (fraction); higher = more cells survive
Compound in the assay “Ispinesib + Palbociclib”: Cc1ccc(C(=O)N(CCCN)[C@@H](c2nc3cc(Cl)ccc3c(=O)n2Cc2ccccc2)C(C)C)cc1 [Ispinesib] + CC(=O)c1c(C)c2cnc(Nc3ccc(N4CCNCC4)cn3)nc2n(C2CCCC2)c1=O [Palbociclib] (partner 0.5 µM)
An outline of the steps:
(§1)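 Nuclei were stained with Hoechst during a one-step fixation (final 0.05% Triton X-100, 1% formaldehyde, 1 ug/ml Hoechst) carried out 5 days after dosing, then counted on 4× images. The cells, lung cancer lines in 1536-well plates, had been dosed by pin tool the day after seeding with one drug alone or a fixed anchor-drug dose plus five library-drug doses (not always all listed) in √10 steps. Relative viability is the nuclei count in treated wells divided by that in vehicle wells, and each value is the median of duplicate plates.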

Compound in the assay “Ispinesib + Vorinostat”: Cc1ccc(C(=O)N(CCCN)[C@@H](c2nc3cc(Cl)ccc3c(=O)n2Cc2ccccc2)C(C)C)cc1 [Ispinesib] + O=C(CCCCCCC(=O)Nc1ccccc1)NO [Vorinostat] (partner 1 µM)
The essentials:
as §1

Compound in the assay “Ispinesib + AZD7762”: Cc1ccc(C(=O)N(CCCN)[C@@H](c2nc3cc(Cl)ccc3c(=O)n2Cc2ccccc2)C(C)C)cc1 [Ispinesib] + NC(=O)Nc1cc(-c2cccc(F)c2)sc1C(=O)N[C@H]1CCCNC1 [AZD7762] (partner 0.2 µM)
An outline of the steps: as §1

Compound in the assay “Linsitinib + Navitoclax”: C[C@]1(O)C[C@@H](c2nc(-c3ccc4ccc(-c5ccccc5)nc4c3)c3c(N)nccn32)C1 [Linsitinib] + CC1(C)CCC(c2ccc(Cl)cc2)=C(CN2CCN(c3ccc(C(=O)NS(=O)(=O)c4ccc(N[C@H](CCN5CCOCC5)CSc5ccccc5)c(S(=O)(=O)C(F)(F)F)c4)cc3)CC2)C1 [Navitoclax] (partner 0.5 µM)
An outline of the steps:
as §1

PC-3 [JPC-3]: the relative viability worked out at 0.533 with Ispinesib + Palbociclib (first compound 0.001 µM); 0.55 in the assay with Ispinesib + Palbociclib (first compound 0.003162 µM); 0.548 in the assay with Ispinesib + Palbociclib (first compound 0.01 µM); 0.553 in the assay with Ispinesib + Palbociclib (first compound 0.03162 µM); 0.395 in the assay with Ispinesib + Palbociclib (first compound 0.1 µM); 0.776 in the assay with Ispinesib + Vorinostat (first compound 0.001 µM). For the same cell line, the relative viability in the assay with Ispinesib + Vorinostat (first compound 0.003162 µM) was 0.977; in the assay with Ispinesib + Vorinostat (first compound 0.01 µM) it was 0.794; with Ispinesib + Vorinostat (first compound 0.03162 µM), 0.498; with Ispinesib + Vorinostat (first compound 0.1 µM), 0.435; in the assay with Ispinesib + AZD7762 (first compound 0.001 µM), 0.937; with Ispinesib + AZD7762 (first compound 0.003162 µM), 0.9. The relative viability in the assay with Ispinesib + AZD7762 (first compound 0.01 µM) worked out at 0.798; with Ispinesib + AZD7762 (first compound 0.03162 µM) it was 0.542; with Ispinesib + AZD7762 (first compound 0.1 µM) it was 0.368; with Linsitinib + Navitoclax (first compound 0.01 µM), 0.842; with Linsitinib + Navitoclax (first compound 0.03162 µM) it was 0.798; with Linsitinib + Navitoclax (first compound 0.1 µM), 0.785. Further, the relative viability amounted to 0.731 in the assay with Linsitinib + Navitoclax (first compound 0.3162 µM) and 0.669 with Linsitinib + Navitoclax (first compound 1 µM).
As for NCI-H1355, the relative viability in the assay with Ispinesib + Palbociclib (first compound 0.001 µM) was determined as 0.397; with Ispinesib + Palbociclib (first compound 0.003162 µM) it was 0.425; with Ispinesib + Palbociclib (first compound 0.01 µM), 0.436; with Ispinesib + Palbociclib (first compound 0.03162 µM) it was 0.373; with Ispinesib + Palbociclib (first compound 0.1 µM) it was 0.331; with Ispinesib + Vorinostat (first compound 0.001 µM), 0.673. Moreover, the relative viability in the assay with Ispinesib + Vorinostat (first compound 0.003162 µM) came to 0.675; in the assay with Ispinesib + Vorinostat (first compound 0.01 µM), 0.758; with Ispinesib + Vorinostat (first compound 0.03162 µM), 0.458; with Ispinesib + Vorinostat (first compound 0.1 µM), 0.286; with Ispinesib + AZD7762 (first compound 0.001 µM), 0.783; with Ispinesib + AZD7762 (first compound 0.003162 µM), 0.847. For the same cell line, the relative viability was 0.805 in the assay with Ispinesib + AZD7762 (first compound 0.01 µM); 0.448 in the assay with Ispinesib + AZD7762 (first compound 0.03162 µM); 0.284 in the assay with Ispinesib + AZD7762 (first compound 0.1 µM); 0.888 with Linsitinib + Navitoclax (first compound 0.01 µM); 0.868 with Linsitinib + Navitoclax (first compound 0.03162 µM); 0.881 with Linsitinib + Navitoclax (first compound 0.1 µM). Also, the relative viability was 0.729 in the assay with Linsitinib + Navitoclax (first compound 0.3162 µM) and 0.659 with Linsitinib + Navitoclax (first compound 1 µM).
As for NCI-H727, the relative viability with Ispinesib + Palbociclib (first compound 0.001 µM) stood at 0.565; with Ispinesib + Palbociclib (first compound 0.003162 µM) it was 0.66; with Ispinesib + Palbociclib (first compound 0.03162 µM), 0.678; with Ispinesib + Palbociclib (first compound 0.1 µM) it was 0.617; with Ispinesib + Vorinostat (first compound 0.001 µM), 1.24; with Ispinesib + Vorinostat (first compound 0.003162 µM), 1.31. For the same cell line, the relative viability in the assay with Ispinesib + Vorinostat (first compound 0.03162 µM) worked out at 1.05; with Ispinesib + Vorinostat (first compound 0.1 µM), 1.06; in the assay with Ispinesib + AZD7762 (first compound 0.001 µM), 0.722; with Ispinesib + AZD7762 (first compound 0.003162 µM), 0.564; with Ispinesib + AZD7762 (first compound 0.03162 µM), 0.548; with Ispinesib + AZD7762 (first compound 0.1 µM) it was 0.498. Moreover, the relative viability with Linsitinib + Navitoclax (first compound 0.01 µM) is 0.406; with Linsitinib + Navitoclax (first compound 0.03162 µM), 0.539; in the assay with Linsitinib + Navitoclax (first compound 0.1 µM) it was 0.376; in the assay with Linsitinib + Navitoclax (first compound 0.3162 µM), 0.19; with Linsitinib + Navitoclax (first compound 1 µM), 0.184.
Take NCI-H1975: the relative viability came out at 0.663 with Ispinesib + Palbociclib (first compound 0.001 µM); 0.683 with Ispinesib + Palbociclib (first compound 0.003162 µM); 0.581 with Ispinesib + Palbociclib (first compound 0.01 µM); 0.311 in the assay with Ispinesib + Palbociclib (first compound 0.03162 µM); 0.192 with Ispinesib + Palbociclib (first compound 0.1 µM); 0.738 with Ispinesib + Vorinostat (first compound 0.001 µM). Further, the relative viability with Ispinesib + Vorinostat (first compound 0.003162 µM) was found to be 0.766; with Ispinesib + Vorinostat (first compound 0.01 µM), 0.798; with Ispinesib + Vorinostat (first compound 0.03162 µM), 0.586; with Ispinesib + Vorinostat (first compound 0.1 µM), 0.279; with Ispinesib + AZD7762 (first compound 0.001 µM), 0.678; with Ispinesib + AZD7762 (first compound 0.003162 µM) it was 0.829. In addition, the relative viability with Ispinesib + AZD7762 (first compound 0.01 µM) amounted to 0.781; in the assay with Ispinesib + AZD7762 (first compound 0.03162 µM), 0.617; with Ispinesib + AZD7762 (first compound 0.1 µM), 0.279; with Linsitinib + Navitoclax (first compound 0.01 µM), 1.08; with Linsitinib + Navitoclax (first compound 0.03162 µM), 0.941; in the assay with Linsitinib + Navitoclax (first compound 0.1 µM) it was 1.04. Moreover, the relative viability came out at 1.12 in the assay with Linsitinib + Navitoclax (first compound 0.3162 µM) and 0.8 with Linsitinib + Navitoclax (first compound 1 µM).
